In US20200048259A1, “KDM5 INHIBITORS” (priority 2016, published 2020):
pIC50: −log10 of the molar value.

target: T1, Full-length KDM5B enzyme (Homo sapiens, UniProt Q9UGL1); assay: KDM5B TR-FRET Enzyme Activity Assay (LANCE); type: biochemical; conditions: not given
T1 construct: recombinant protein from baculovirus-transfected Sf21 cells: full-length KDM5B; MW=176.825 kDa; host or cells: baculovirus-transfected Sf21 insect cells
Protocol: KDM5B TR-FRET Enzyme Activity Assay
KDM5B enzymatic activity was determined with the LANCE (Lanthanide Chelate Excite) TR-FRET (Time-resolved fluorescence resonance energy transfer) assay. […] Following a 30 minutes compound and enzyme incubation in a humidified chamber, each reaction was initiated by the addition of 1 μL 1× assay buffer containing […] biotinylated H3K4Me3 peptide, and 500 nM α-ketoglutarate. The final reaction in each well of 5 μL consists of 5 nM KDM5B, 500 nM biotinylated-peptide, and 500 nM α-ketoglutarate. De-methylation reactions were allowed to proceed for 60 minutes. Reactions were immediately quenched by the addition of 5 μL of 2× Lance Detection Buffer (PerkinElmer) with 0.5 mM EDTA and 2 nM of Eu-anti-H3K4Mel-2 antibody, and 30 nM of Streptavidin-conjugated Dylight 650 detection reagents. After 60 minutes incubation with detection reagents, reaction plates were read on a PerkinElmer EnVision plate reader using standard TR-FRET protocol. Briefly, excitation of donor molecules (Eu-chelate-anti-H3K4Me1-2-antibody) with a laser light source at 337 nm produces energy that can be transferred to Dylight-650 acceptor molecules if this donor:acceptor pair is within close proximity.
Fluorescence intensity at both 665 nm (acceptor) and 615 nm (donor) are measured and a TR-FRET ratio calculated for each well (acceptor intensity/donor intensity). IC50 values were determined by 4 parameter robust fit of TR-FRET ratio values vs. (Log 10) compound concentrations.

T1 sequence (Q9UGL1 whole entry): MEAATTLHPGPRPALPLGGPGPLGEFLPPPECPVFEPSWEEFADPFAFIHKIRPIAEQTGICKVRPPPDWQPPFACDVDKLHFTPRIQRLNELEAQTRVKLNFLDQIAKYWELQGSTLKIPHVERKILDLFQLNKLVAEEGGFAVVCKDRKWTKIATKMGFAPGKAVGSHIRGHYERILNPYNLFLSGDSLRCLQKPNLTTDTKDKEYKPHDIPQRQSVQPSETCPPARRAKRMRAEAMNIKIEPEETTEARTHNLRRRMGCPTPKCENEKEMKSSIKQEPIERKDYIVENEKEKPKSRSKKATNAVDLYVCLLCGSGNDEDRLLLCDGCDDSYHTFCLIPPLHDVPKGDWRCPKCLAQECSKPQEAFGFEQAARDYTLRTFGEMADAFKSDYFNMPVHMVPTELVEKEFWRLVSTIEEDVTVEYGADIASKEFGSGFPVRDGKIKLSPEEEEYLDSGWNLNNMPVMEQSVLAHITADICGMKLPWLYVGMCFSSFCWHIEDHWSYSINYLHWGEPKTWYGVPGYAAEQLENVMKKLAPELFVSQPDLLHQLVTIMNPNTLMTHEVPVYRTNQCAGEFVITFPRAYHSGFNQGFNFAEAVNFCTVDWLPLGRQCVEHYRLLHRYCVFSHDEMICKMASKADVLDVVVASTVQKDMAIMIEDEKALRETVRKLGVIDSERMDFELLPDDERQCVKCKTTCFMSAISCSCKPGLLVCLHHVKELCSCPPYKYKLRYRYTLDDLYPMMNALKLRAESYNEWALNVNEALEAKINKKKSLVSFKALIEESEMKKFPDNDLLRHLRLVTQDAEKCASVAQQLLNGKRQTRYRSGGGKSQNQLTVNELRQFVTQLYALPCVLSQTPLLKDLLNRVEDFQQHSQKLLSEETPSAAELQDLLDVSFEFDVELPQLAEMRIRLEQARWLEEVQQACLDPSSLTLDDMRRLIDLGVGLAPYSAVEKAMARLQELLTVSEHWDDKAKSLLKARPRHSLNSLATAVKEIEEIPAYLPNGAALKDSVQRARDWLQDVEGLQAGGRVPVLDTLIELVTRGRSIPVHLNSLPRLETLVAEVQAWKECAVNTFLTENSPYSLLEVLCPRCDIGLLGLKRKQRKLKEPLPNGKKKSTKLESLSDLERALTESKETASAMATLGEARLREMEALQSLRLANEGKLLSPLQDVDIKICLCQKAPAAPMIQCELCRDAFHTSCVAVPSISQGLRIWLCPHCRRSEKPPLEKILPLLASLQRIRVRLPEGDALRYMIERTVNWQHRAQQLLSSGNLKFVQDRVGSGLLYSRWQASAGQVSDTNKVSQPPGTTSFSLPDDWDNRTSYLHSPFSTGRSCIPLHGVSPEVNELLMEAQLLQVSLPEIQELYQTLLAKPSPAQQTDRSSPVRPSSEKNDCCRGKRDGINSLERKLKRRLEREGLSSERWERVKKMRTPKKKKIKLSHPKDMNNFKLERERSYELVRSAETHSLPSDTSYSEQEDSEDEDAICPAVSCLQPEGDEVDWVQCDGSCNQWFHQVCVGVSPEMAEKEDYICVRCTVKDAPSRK

CCCCc1cc(=O)n2nc(C)nc2[nH]1 [Example 7-49, 5-butyl-2-methyl[1,2,4]triazolo[1,5-a]pyrimidin-7(4H)-one] and Cc1nc2[nH]c(CC(C)(C)C)cc(=O)n2n1 [Example 7-57, 5-(2,2-dimethylpropyl)-2-methyl[1,2,4]triazolo[1,5-a]pyrimidin-7(4H)-one] cannot be ordered by pIC50: under 4.00 for the first, under 4.00 for the second.

Compared with Cc1nc2[nH]c(-c3ccc(Cl)cc3)cc(=O)n2n1 [Example 7-51, 5-(4-chlorophenyl)-2-methyl[1,2,4]triazolo[1,5-a]pyrimidin-7(4H)-one], Cc1nc2[nH]c(-c3ccccc3)cc(=O)n2n1 [Example 7-69, 2-methyl-5-phenyl-[1,2,4]triazolo[1,5-a]pyrimidin-7(4H)-one] is 0.27 log units higher in pIC50: 4.85 for the first, 5.12 for the second.

Cc1nc2[nH]c(-c3ccccc3Cl)cc(=O)n2n1 [Example 7-52, 5-(2-chlorophenyl)-2-methyl[1,2,4]triazolo[1,5-a]pyrimidin-7(4H)-one] and Cc1nc2[nH]c(CC3CC3)cc(=O)n2n1 [Example 7-63, 5-(cyclopropylmethyl)-2-methyl[1,2,4]triazolo[1,5-a]pyrimidin-7(4H)-one] cannot be ordered by pIC50: under 4.00 for the first, under 4.00 for the second.

Cc1nc2[nH]c(CC3CCCC3)cc(=O)n2n1 [Example 7-56, 5-(cyclopentylmethyl)-2-methyl[1,2,4]triazolo[1,5-a]pyrimidin-7(4H)-one] and Cc1nc2[nH]c(C3CCCC3)cc(=O)n2n1 [Example 7-61, 5-cyclopentyl-2-methyl[1,2,4]triazolo[1,5-a]pyrimidin-7(4H)-one] cannot be ordered by pIC50: under 4.00 for the first, under 4.00 for the second.

Cc1nc2[nH]c(C3CCOCC3)cc(=O)n2n1 [Example 7-58, 2-methyl-5-(tetrahydro-2H-pyran-4-yl)[1,2,4]triazolo[1,5-a]pyrimidin-7(4H)-one] and Cc1nc2[nH]c(C3CCCCC3)cc(=O)n2n1 [Example 7-59, 5-cyclohexyl-2-methyl[1,2,4]triazolo[1,5-a]pyrimidin-7(4H)-one] cannot be ordered by pIC50: under 4.00 for the first, under 4.00 for the second.

same assay, conditions: 5 nM full-length KDM5B, biotinylated H3K4Me3 peptide, 500 nM α-ketoglutarate; ten point titration 100000 nM to 5.08 nM; read-out: IC50

Going from CCc1[nH]c2nc(C)nn2c(=O)c1C [Example 7-47, 5-ethyl-2,6-dimethyl[1,2,4]triazolo[1,5-a]pyrimidin-7(4H)-one] to Cc1nc2[nH]c(C)c(F)c(=O)n2n1 [Example 7-50, 6-fluoro-2,5-dimethyl[1,2,4]triazolo[1,5-a]pyrimidin-7(4H)-one], the pIC50 falls from 4.54 to 4.15 (0.39 log units). The first is the more potent here.

Cc1nc2[nH]c(C(F)(F)F)c(C)c(=O)n2n1 [Example 7-48, 2,6-dimethyl-5-(trifluoromethyl)[1,2,4]triazolo[1,5-a]pyrimidin-7(4H)-one] and Cc1nc2[nH]c(C(F)(F)F)c(F)c(=O)n2n1 [Example 7-65, 6-fluoro-2-methyl-5-(trifluoromethyl)[1,2,4]triazolo[1,5-a]pyrimidin-7(4H)-one] are within 0.2 log units of each other in pIC50: 4.53 for the first, 4.55 for the second.

Going from Cc1nc2[nH]c(-c3ccccc3F)cc(=O)n2n1 [Example 7-53, 5-(2-fluorophenyl)-2-methyl[1,2,4]triazolo[1,5-a]pyrimidin-7(4H)-one] to Cc1nc2[nH]c(-c3cccc(Cl)c3)cc(=O)n2n1 [Example 7-54, 5-(3-chlorophenyl)-2-methyl[1,2,4]triazolo[1,5-a]pyrimidin-7(4H)-one], the pIC50 rises from 4.43 to 4.91 (0.48 log units). The second is the more potent here.

Cc1nc2[nH]c(Cc3ccccc3)cc(=O)n2n1 [Example 7-55, 5-benzyl-2-methyl[1,2,4]triazolo[1,5-a]pyrimidin-7(4H)-one] and Cc1nc2[nH]c(C3CCC3)cc(=O)n2n1 [Example 7-62, 5-cyclobutyl-2-methyl[1,2,4]triazolo[1,5-a]pyrimidin-7(4H)-one] are within 0.2 log units of each other in pIC50: 4.01 for the first, 4.20 for the second.

First: CCc1c(C(F)(F)F)[nH]c2nc(C)nn2c1=O [Example 7-60, 6-ethyl-2-methyl-5-(trifluoromethyl)[1,2,4]triazolo[1,5-a]pyrimidin-7(4H)-one]
Second: Cc1nc2[nH]c(C3CC3)c(C)c(=O)n2n1 [Example 7-64, 5-cyclopropyl-2,6-dimethyl[1,2,4]triazolo[1,5-a]pyrimidin-7(4H)-one]
The pIC50 of the first is 0.84 log units higher: 5.19 for the first, 4.35 for the second.

First: Cc1nc2[nH]c(C3CCCC3)c(C)c(=O)n2n1 [Example 7-66, 5-cyclopentyl-2,6-dimethyl[1,2,4]triazolo[1,5-a]pyrimidin-7(4H)-one]
Second: Cc1nc2[nH]c(C3CCCCC3)c(C)c(=O)n2n1 [Example 7-67, 5-cyclohexyl-2,6-dimethyl[1,2,4]triazolo[1,5-a]pyrimidin-7(4H)-one]
The pIC50 of the first is 0.29 log units higher: 4.56 for the first, 4.27 for the second.

For Cc1nc2[nH]c(C3CCC3)c(C)c(=O)n2n1 [Example 7-68, 5-cyclobutyl-2,6-dimethyl[1,2,4]triazolo[1,5-a]pyrimidin-7(4H)-one], the pIC50 was 4.64.
